pIC50: −log10 of the molar value.
What was measured:
EGFR L858R = molecular target: T1, EGFR L858R (Homo sapiens, UniProt P00533, L858R); test: Biochemical EGFR inhibition assay (Caliper mobility shift), EGFR L858R; conditions: biochemical Caliper mobility shift assay, EGFR L858R enzyme; read-out: Enz EGFR L858R IC50
T1 construct: purchased SignalChem E10-122BG
Outline: (§1)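 Apparent IC50 from Caliper separation of phospho-peptide from substrate. Conditions: 2.5 µM 5-FAM peptide, 1.0 mM ATP or ATP Km, pH 7.5 HEPES buffer, room temperature, 10–20% conversion, EDTA stop.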

EGFR (d746-750) = molecular target: T2, EGFR (d746-750) (Homo sapiens, UniProt P00533, DEL746-750); test: Biochemical EGFR inhibition assay (Caliper mobility shift), EGFR (d746-750); conditions: biochemical Caliper mobility shift assay, EGFR Exon 19-del enzyme; read-out: Enz EGFR Exon 19-del IC50
T2 construct: purchased SignalChem E10-122JG
T2 sequence (P00533 with tags, fused parts or gaps DEL746-750 limits assumed): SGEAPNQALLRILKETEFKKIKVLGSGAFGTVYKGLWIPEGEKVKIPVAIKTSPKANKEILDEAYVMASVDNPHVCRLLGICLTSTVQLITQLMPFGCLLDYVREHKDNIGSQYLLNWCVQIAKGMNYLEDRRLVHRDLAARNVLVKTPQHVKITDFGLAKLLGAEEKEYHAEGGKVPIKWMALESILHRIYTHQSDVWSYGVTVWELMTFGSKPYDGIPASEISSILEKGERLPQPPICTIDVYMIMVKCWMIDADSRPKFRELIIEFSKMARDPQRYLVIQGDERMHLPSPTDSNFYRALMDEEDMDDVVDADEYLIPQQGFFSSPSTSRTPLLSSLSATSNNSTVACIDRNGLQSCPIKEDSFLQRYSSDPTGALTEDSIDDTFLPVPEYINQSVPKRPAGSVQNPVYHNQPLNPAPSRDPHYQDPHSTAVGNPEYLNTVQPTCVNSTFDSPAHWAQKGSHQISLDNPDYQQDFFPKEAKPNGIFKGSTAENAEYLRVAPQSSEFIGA
Outline: as §1

[1] = molecular target: intracellular phosphorylation of EGFR (Tyr1068) in PC-9 cells (Homo sapiens, UniProt P00533, DEL746-750); test: PC-9 pEGFR AlphaLISA assay; format: cell-based; conditions: 4 hours incubation, read-out: Phos EGFR PC9 IC50
intracellular phosphorylation of EGFR (Tyr1068) in PC-9 cells, sequence (P00533 with tags, fused parts or gaps DEL746-750): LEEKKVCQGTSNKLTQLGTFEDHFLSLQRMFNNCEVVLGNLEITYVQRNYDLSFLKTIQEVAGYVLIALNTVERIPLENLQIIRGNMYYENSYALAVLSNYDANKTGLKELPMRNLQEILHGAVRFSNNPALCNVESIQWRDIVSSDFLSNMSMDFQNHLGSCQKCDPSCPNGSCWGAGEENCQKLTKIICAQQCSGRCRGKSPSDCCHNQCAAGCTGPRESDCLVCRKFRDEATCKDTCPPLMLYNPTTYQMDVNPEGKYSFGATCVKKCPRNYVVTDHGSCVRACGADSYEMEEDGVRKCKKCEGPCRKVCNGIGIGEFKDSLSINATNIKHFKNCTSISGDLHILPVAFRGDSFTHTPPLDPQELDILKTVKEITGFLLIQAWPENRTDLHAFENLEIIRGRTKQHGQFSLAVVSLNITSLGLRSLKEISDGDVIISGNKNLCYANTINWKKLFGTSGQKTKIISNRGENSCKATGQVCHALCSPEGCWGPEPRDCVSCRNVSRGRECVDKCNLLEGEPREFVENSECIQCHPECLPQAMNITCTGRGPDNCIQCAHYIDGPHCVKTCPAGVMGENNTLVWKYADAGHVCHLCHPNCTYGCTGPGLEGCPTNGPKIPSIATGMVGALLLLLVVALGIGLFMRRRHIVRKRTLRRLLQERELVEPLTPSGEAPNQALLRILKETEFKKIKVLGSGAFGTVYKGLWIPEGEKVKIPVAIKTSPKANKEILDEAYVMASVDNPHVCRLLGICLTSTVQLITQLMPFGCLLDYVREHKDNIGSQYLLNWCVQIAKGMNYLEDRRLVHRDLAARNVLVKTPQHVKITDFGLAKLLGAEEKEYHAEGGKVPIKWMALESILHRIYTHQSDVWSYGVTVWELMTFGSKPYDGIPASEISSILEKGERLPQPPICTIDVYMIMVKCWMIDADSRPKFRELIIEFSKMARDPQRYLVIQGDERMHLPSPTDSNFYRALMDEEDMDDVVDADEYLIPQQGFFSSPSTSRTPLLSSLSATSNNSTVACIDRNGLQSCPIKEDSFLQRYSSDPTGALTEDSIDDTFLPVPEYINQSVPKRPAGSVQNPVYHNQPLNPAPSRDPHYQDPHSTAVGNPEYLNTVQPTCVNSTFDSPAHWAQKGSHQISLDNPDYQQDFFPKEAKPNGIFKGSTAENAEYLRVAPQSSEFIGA
Outline: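 PC-9 cells (EGFR del746-750) in phenol-free DMEM/10% FBS, adhered overnight, then exposed to 10-point 4-fold compound dilutions for 4 h at 37 °C. Lysates assayed for pEGFR Tyr1068 by AlphaLISA SureFire Ultra; IC50 from percent pEGFR inhibition vs log concentration.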

T1 sequence (P00533 25-1210 L858R): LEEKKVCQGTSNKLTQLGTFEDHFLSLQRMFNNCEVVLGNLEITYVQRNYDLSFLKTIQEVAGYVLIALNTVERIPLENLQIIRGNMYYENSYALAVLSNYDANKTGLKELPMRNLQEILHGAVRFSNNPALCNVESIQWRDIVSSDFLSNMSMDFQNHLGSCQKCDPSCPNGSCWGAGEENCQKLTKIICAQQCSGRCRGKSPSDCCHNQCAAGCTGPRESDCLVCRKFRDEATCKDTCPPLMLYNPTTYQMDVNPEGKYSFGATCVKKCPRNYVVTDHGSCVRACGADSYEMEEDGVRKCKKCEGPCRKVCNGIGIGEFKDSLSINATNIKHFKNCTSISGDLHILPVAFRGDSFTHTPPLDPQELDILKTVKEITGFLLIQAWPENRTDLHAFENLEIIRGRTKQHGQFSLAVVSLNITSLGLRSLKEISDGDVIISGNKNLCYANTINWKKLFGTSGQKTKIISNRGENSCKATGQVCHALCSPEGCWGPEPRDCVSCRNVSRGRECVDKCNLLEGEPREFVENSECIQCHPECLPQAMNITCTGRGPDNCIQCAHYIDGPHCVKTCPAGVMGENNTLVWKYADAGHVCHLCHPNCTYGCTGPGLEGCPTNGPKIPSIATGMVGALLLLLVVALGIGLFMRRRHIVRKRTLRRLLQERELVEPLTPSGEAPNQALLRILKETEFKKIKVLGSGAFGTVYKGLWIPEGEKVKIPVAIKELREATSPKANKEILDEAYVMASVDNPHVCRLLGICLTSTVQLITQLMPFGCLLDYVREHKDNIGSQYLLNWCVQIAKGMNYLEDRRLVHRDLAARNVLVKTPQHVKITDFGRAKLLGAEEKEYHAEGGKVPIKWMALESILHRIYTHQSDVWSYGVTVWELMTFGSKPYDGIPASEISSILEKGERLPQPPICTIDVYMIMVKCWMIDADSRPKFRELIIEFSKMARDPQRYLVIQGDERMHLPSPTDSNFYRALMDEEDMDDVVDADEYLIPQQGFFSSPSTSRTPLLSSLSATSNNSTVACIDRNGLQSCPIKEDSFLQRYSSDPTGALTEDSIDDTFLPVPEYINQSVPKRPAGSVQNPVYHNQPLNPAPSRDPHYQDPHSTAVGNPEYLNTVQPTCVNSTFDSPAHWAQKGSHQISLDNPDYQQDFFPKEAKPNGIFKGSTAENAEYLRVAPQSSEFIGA

Compound | pIC50 (EGFR L858R) | pIC50 (EGFR (d746-750)) | pIC50 [1]
COc1cc(O[C@H](C)C2COC2)c2c(Nc3ccc4ncsc4c3)ncnc2c1 [Example 124, (R)-N-(7-methoxy-5-(1-(oxetan-3-yl)ethoxy)quinazolin-4-yl)benzo[d]thiazol-6-amine] | ≥ 8.00 | ≥ 8.00 | 7.30 to 8.00
CC(C)Oc1cc(O[C@H](C)C2COC2)c2c(Nc3ccc4ncsc4c3)ncnc2c1 [Example 125, (R)-N-(7-isopropoxy-5-(1-(oxetan-3-yl)ethoxy)quinazolin-4-yl)benzo[d]thiazol-6-amine] | ≥ 8.00 | ≥ 8.00 | 7.30 to 8.00
COCCOc1cc(O[C@H](C)C2COC2)c2c(Nc3ccc4ncsc4c3)ncnc2c1 [Example 126, (R)-N-(7-(2-methoxyethoxy)-5-(1-(oxetan-3-yl)ethoxy)quinazolin-4-yl)benzo[d]thiazol-6-amine] | ≥ 8.00 | ≥ 8.00 | ≥ 8.00
C[C@@H](Oc1cc(N2CC3CC(C2)O3)cc2ncnc(Nc3ccc4ncsc4c3)c12)C1COC1 [Example 129, N-(7-(6-oxa-3-azabicyclo[3.1.1]heptan-3-yl)-5-((R)-1-(oxetan-3-yl)ethoxy)quinazolin-4-yl)benzo[d]thiazol-6-amine] | ≥ 8.00 | ≥ 8.00 | ≥ 8.00
[2H]C([2H])([2H])Oc1cc(O[C@H](C)C2COC2)c2c(Nc3ccc4ncsc4c3F)ncnc2c1 [Example 130, (R)-7-fluoro-N-(7-(methoxy-d3)-5-(1-(oxetan-3-yl)ethoxy)quinazolin-4-yl)benzo[d]thiazol-6-amine] | ≥ 8.00 | ≥ 8.00 | ≥ 8.00
COc1cn(C)nc1-c1cc(OC2CCN(C)CC2)c2c(Nc3ccc4ncsc4c3)ncnc2c1 [Example 131, N-(7-(4-methoxy-1-methyl-1H-pyrazol-3-yl)-5-((1-methylpiperidin-4-yl)oxy)quinazolin-4-yl)benzo[d]thiazol-6-amine] | 7.30 to 8.00 | ≥ 8.00 | 7.30 to 8.00
COc1cc2ncnc(Nc3ccc4ncsc4c3)c2cc1-c1cnn(C)c1 [Example 132, N-(7-methoxy-6-(1-methyl-1H-pyrazol-4-yl)quinazolin-4-yl)benzo[d]thiazol-6-amine] | ≥ 8.00 | ≥ 8.00 | ≥ 8.00
C[C@@H](Oc1cc(-c2cnn(C)c2)cc2ncnc(Nc3ccc4ncsc4c3)c12)C1COC1 [Example 133, (R)—N-(7-(1-methyl-1H-pyrazol-4-yl)-5-(1-(oxetan-3-yl)ethoxy)quinazolin-4-yl)benzo[d]thiazol-6-amine] | ≥ 8.00 | ≥ 8.00 | ≥ 8.00
Cn1cc(-c2cc(O[C@H]3CCCNC3)c3c(Nc4ccc5ncsc5c4)ncnc3c2)cn1 [Example 134, (S)-N-(7-(1-methyl-1H-pyrazol-4-yl)-5-(piperidin-3-yloxy)quinazolin-4-yl)benzo[d]thiazol-6-amine] | ≥ 8.00 | ≥ 8.00 | 7.30 to 8.00
Cc1ccnn1-c1cc(OC2CCOCC2)c2c(Nc3ccc4ncsc4c3)ncnc2c1 [Example 135, N-(7-(5-methyl-1H-pyrazol-1-yl)-5-((tetrahydro-2H-pyran-4-yl)oxy)quinazolin-4-yl)benzo[d]thiazol-6-amine] | 7.30 to 8.00 | 7.30 to 8.00 | < 7.30
CN(C)C1CCC1Oc1cc(-c2cnn(C)c2)cc2ncnc(Nc3ccc4ncsc4c3)c12 [Example 153, N-(5-((1S,2S)-2-(dimethylamino)cyclobutoxy)-7-(1-methyl-1H-pyrazol-4-yl)quinazolin-4-yl)benzo[d]thiazol-6-amine OR N-(5-((1R,2R)-2-(dimethylamino)cyclobutoxy)-7-(1-methyl-1H-pyrazol-4-yl)quinazolin-4-yl)benzo[d]thiazol-6-amine] | ≥ 8.00 | ≥ 8.00 | 7.30 to 8.00

Second part, the compound after the results:

pIC50 (EGFR L858R) | pIC50 (EGFR (d746-750)) | pIC50 [1] | Compound
≥ 8.00 | ≥ 8.00 | 7.30 to 8.00 | Cc1ccn(-c2cc(OC3CCOCC3)c3c(Nc4ccc5ncsc5c4)ncnc3c2)n1 [Example 136, N-(7-(3-methyl-1H-pyrazol-1-yl)-5-((tetrahydro-2H-pyran-4-yl)oxy)quinazolin-4-yl)benzo[d]thiazol-6-amine]
≥ 8.00 | ≥ 8.00 | ≥ 8.00 | COC[C@H](C)Oc1cc(-c2cnn(C)c2)cc2ncnc(Nc3ccc4ncsc4c3F)c12 [Example 139, (S)-7-fluoro-N-(5-((1-methoxypropan-2-yl)oxy)-7-(1-methyl-1H-pyrazol-4-yl)quinazolin-4-yl)benzo[d]thiazol-6-amine]
≥ 8.00 | ≥ 8.00 | ≥ 8.00 | C[C@H](CN(C)C)Oc1cc(-c2cnn(C)c2)cc2ncnc(Nc3ccc4ncsc4c3F)c12 [Example 140, (R)-N-(5-((1-(dimethylamino)propan-2-yl)oxy)-7-(1-methyl-1H-pyrazol-4-yl)quinazolin-4-yl)-7-fluorobenzo[d]thiazol-6-amine]
7.30 to 8.00 | ≥ 8.00 | 7.30 to 8.00 | COC[C@H](CN(C)C)Oc1cc(-c2cnn(C)c2)cc2ncnc(Nc3ccc4ncsc4c3)c12 [Example 141, (S)-N-(5-((1-(dimethylamino)-3-methoxypropan-2-yl)oxy)-7-(1-methyl-1H-pyrazol-4-yl)quinazolin-4-yl)benzo[d]thiazol-6-amine]
7.30 to 8.00 | ≥ 8.00 | 7.30 to 8.00 | COc1cc(O[C@H](C)CN(C)C)c2c(Nc3ccc4ncsc4c3F)ncnc2c1 [Example 146, (R)-N-(5-((1-(dimethylamino)propan-2-yl)oxy)-7-methoxyquinazolin-4-yl)-7-fluorobenzo[d]thiazol-6-amine]
≥ 8.00 | ≥ 8.00 | ≥ 8.00 | COc1cc2ncnc(Nc3ccc4ncsc4c3)c2cc1-c1cnn(C2CCN(C)CC2)c1 [Example 163, N-(7-methoxy-6-(1-(1-methylpiperidin-4-yl)-1H-pyrazol-4-yl)quinazolin-4-yl)benzo[d]thiazol-6-amine]
7.30 to 8.00 | ≥ 8.00 | ≥ 8.00 | C[C@H](CN(C)C)Oc1cc(N2CC3CC(C2)O3)cc2ncnc(Nc3ccc4ncsc4c3F)c12 [Example 176, N-(7-(6-oxa-3-azabicyclo[3.1.1]heptan-3-yl)-5-(((R)-1-(dimethylamino)propan-2-yl)oxy)quinazolin-4-yl)-7-fluorobenzo[d]thiazol-6-amine]
≥ 8.00 | ≥ 8.00 | ≥ 8.00 | C[C@H](CN(C)C)Oc1cc(N2CC3CC(C2)O3)cc2ncnc(Nc3ccc4ncsc4c3)c12 [Example 177, N-(7-(6-oxa-3-azabicyclo[3.1.1]heptan-3-yl)-5-(((R)-1-(dimethylamino)propan-2-yl)oxy)quinazolin-4-yl)benzo[d]thiazol-6-amine]
≥ 8.00 | ≥ 8.00 | ≥ 8.00 | C[C@@H](Oc1cc(N2CC3CC(C2)O3)cc2ncnc(Nc3ccc4ncsc4c3F)c12)C1COC1 [Example 180, N-(7-(6-oxa-3-azabicyclo[3.1.1]heptan-3-yl)-5-((R)-1-(oxetan-3-yl)ethoxy)quinazolin-4-yl)-7-fluorobenzo[d]thiazol-6-amine]
≥ 8.00 | ≥ 8.00 | ≥ 8.00 | C[C@H](CN(C)C)Oc1cc(N2CC[C@H](C(C)(C)O)C2)cc2ncnc(Nc3ccc4ncsc4c3)c12 [Example 181, 2-((S)-1-(4-(benzo[d]thiazol-6-ylamino)-5-(((R)-1-(dimethylamino)propan-2-yl)oxy)quinazolin-7-yl)pyrrolidin-3-yl)propan-2-ol]
≥ 8.00 | ≥ 8.00 | ≥ 8.00 | C[C@H](CN(C)C)Oc1cc(N2CC[C@@H](C(C)(C)O)C2)cc2ncnc(Nc3ccc4ncsc4c3)c12 [Example 182, 2-((R)-1-(4-(benzo[d]thiazol-6-ylamino)-5-(((R)-1-(dimethylamino)propan-2-yl)oxy)quinazolin-7-yl)pyrrolidin-3-yl)propan-2-ol]
7.30 to 8.00 | ≥ 8.00 | 7.30 to 8.00 | C[C@H](CN(C)C)Oc1cc(N2CCOCC2)cc2ncnc(Nc3ccc4ncsc4c3F)c12 [Example 183, (R)-N-(5-((1-(dimethylamino)propan-2-yl)oxy)-7-morpholinoquinazolin-4-yl)-7-fluorobenzo[d]thiazol-6-amine]
≥ 8.00 | ≥ 8.00 | ≥ 8.00 | C[C@@H](O)[C@@H](C)Oc1cc(-c2cnn(C)c2)cc2ncnc(Nc3ccc4ncsc4c3)c12 [Example 184, (2R,3R)-3-((4-(benzo[d]thiazol-6-ylamino)-7-(1-methyl-1H-pyrazol-4-yl)quinazolin-5-yl)oxy)butan-2-ol]
≥ 8.00 | ≥ 8.00 | ≥ 8.00 | Cn1cc(-c2cc(O[C@H]3CC[C@H]3O)c3c(Nc4ccc5ncsc5c4)ncnc3c2)cn1 [Example 185, (1R,2S)-2-((4-(benzo[d]thiazol-6-ylamino)-7-(1-methyl-1H-pyrazol-4-yl)quinazolin-5-yl)oxy)cyclobutan-1-ol]
≥ 8.00 | ≥ 8.00 | ≥ 8.00 | Cn1cc(-c2cc(O[C@@H]3CC[C@H]3O)c3c(Nc4ccc5ncsc5c4)ncnc3c2)cn1 [Example 186, (1R,2R)-2-((4-(benzo[d]thiazol-6-ylamino)-7-(1-methyl-1H-pyrazol-4-yl)quinazolin-5-yl)oxy)cyclobutan-1-ol]

From patent US20260207602A1, “EGFR INHIBITORS” (Blueprint Medicines Corporation, priority 2022, published 2026)
